Data as given in patent publication US6521623B1, “N,N'-disubstituted benzimidazolone derivatives with affinity at the serotonin and dopamine receptors” (Boehringer Ingelheim Pharma KG, priority 2000, dated 2003).
Like-named read-outs stand apart in the source and are kept apart here.

Legend:
D4 human receptors = molecular target: T1, D4 human receptors (Homo sapiens, UniProt P21917); assay: D4 Radioligand Receptor Binding Assay ([3H] YM-09151-2, CHO cell membranes); details: compound 10^−7 M, singlicate, [3H] YM-09151-2 0.15-0.25 nM
T1 construct: expressed in transfected cells; host or cells: CHO cells
T1 sequence (P21917 1-419): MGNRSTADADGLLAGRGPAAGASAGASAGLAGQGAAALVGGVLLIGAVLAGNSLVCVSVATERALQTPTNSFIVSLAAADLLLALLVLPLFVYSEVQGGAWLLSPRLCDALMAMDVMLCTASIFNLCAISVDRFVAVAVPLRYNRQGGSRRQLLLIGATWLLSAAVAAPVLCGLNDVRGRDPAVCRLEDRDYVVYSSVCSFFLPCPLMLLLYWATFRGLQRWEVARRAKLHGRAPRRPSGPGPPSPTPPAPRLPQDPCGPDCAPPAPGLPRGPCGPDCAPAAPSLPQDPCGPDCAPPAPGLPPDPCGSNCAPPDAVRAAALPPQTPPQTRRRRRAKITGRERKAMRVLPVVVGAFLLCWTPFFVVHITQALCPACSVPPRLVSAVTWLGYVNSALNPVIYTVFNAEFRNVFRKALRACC
Protocol: D4 Radioligand Receptor Binding Assay
Membranes from CHO cells expressing D4 human receptors, were suspended in incubation buffer.
Binding assays were performed in MultiProbe 204 pipetting system (Packard), according to a predetermined mapping, consistent with the software Screen. The compounds were tested in singlicate at one concentration (10^−7 M) in a total volume of 1000 μl (980 μl of diluted membranes, 10 μl DMSO or unlabelled ligand and 10 μl of [^3H] YM-09151-2 (0.15-0.25 nM). After incubation for 120 minutes at 27° C., the reaction was stopped by rapid filtration through Tomtec Cell Harvester (48 wells) using Filtermat B (presoaked in 0.1% PEI) filters. Filters were washed with ice-cold 50 mM Tris-HCl (pH 7.4) buffer (9×700 μl), dried, covered with MeltiLex B/HS (Wallac) scintillator sheets and heated in oven at 80° C. to 90° C. for about 10 minutes, transferred into plastic sample bags (Wallac), sealed, and put into 1024 Beta Plate scintillation counter (Wallac). Non-specific binding was determined in the presence of clozapine dissolved in DMSO to a final concentration of 10^−5 M.
The specific radioligand binding to the receptor was defined by the difference between total binding and non-specific binding, determined in the presence of an excess of unlabelled ligand. Results were expressed as percentage of control specific binding obtained in the presence of the compounds.

5-HT1A = molecular target: T2, 5-HT1A (Homo sapiens, UniProt P08908); assay: 5HT1A Radioligand Receptor Binding Assay ([3H]-8-OH-DPAT, CHO cell membranes); set-up: expressed in transfected cells; host or cells: CHO cells
T2 sequence (P08908 1-422): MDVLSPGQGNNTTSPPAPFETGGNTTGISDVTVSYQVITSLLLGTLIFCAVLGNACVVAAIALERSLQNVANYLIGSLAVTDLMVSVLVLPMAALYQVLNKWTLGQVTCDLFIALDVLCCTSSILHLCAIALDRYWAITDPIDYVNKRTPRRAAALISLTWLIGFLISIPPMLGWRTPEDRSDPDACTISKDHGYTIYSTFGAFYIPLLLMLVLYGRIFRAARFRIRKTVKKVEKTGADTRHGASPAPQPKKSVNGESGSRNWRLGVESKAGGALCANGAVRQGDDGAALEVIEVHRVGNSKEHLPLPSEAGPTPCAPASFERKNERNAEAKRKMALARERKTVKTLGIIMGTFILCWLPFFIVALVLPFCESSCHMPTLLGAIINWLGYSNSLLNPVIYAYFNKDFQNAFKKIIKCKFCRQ
Protocol: 5HT1A Radioligand Receptor Binding Assay
Membranes from CHO cells, expressing 5-HT1A human receptors were suspended in incubation buffer.
Binding assays were performed in MultiProbe 204 pipetting system (Packard), according to a predetermined mapping, consistent with the software Screen. The compounds were tested in singlicate at one concentration (10^−7 M) in a total volume of 1000 μl. 980 μl of diluted membranes, 10 μl DMSO or unlabelled ligand and 10 μl of [^3H]-8-OH-DPAT (0.6-0.7 nM) were incubated for 60 minutes at 27° C. The reaction was stopped by rapid filtration through Tomtec Cell Harvester (48 wells) using Filtermat B (presoaked in 0.1% PEI) filters. Filters were washed with ice-cold 50 mM Tris-HCl (pH 7.4) buffer (9×700 μl), dried, covered with MeltiLex B/HS scintillator sheets (Wallac) and heated at 80° C. to 90° C. for about 10 minutes, transferred into plastic sample bags (Wallac), sealed, and put into 1024 Beta Plate scintillation counter (Wallac). Non-specific binding was determined in the presence of 5-HT (10^−5 M).
The specific radioligand binding to the receptor was defined by the difference between total binding and non-specific binding, determined in the presence of an excess of unlabelled ligand. Results were expressed as percentage of control specific binding obtained in the presence of the compounds. The affinity values (IC50) for the compounds were obtained by a nonlinear least squares regression analysis on the basis of a one binding site model.

[1] = compound 10^−7 M, singlicate, [3H]-8-OH-DPAT 0.6-0.7 nM, CHO membranes, human 5-HT1A
[2] = [3H]-8-OH-DPAT, CHO membranes, human 5-HT1A, read-out: 5-HT1A Receptor Binding IC50

| Compound | D4 Receptor Binding Assay % inhibition (10^−7 M) (D4 human receptors) | 5-HT1A Receptor Binding Assay % inhibition (10^−7 M) (5-HT1A; [1]) | IC50 (5-HT1A; [2]) | further results |
| --- | --- | --- | --- | --- |
| CCNC(=O)OCCn1c(=O)n(CCCCN2CCN(c3cccc(C)c3)CC2)c2ccccc21 [Compound 94] | 72% | 88% | – | – |
| O=c1n(CCO)c2ccccc2n1CCCCN1CCN(c2ccc(Cl)c(Cl)c2)CC1 [Compound 66] | 99% | 65% | – | – |
| O=c1n(CCO)c2ccccc2n1CCCCN1CC=C(c2ccccc2)CC1 [Compound 65] | 74% | 52% | – | – |
| COCCn1c(=O)n(C/C=C/CN2CCN(c3cccc(Cl)c3)CC2)c2ccccc21 [Compound 297] | – | – | 7.9 nM | inhibition at 0.1 µM (D4 human receptors): 34%; inhibition at 0.1 µM (5-HT1A; [1]): 96% |
| O=c1n(C/C=C\CN2CCN(c3cccc(C(F)(F)F)c3)CC2)c2ccccc2n1CCO [Compound 369] | – | – | 3.5 nM | – |
| O=c1n(C/C=C/CN2CCN(c3cccc(Cl)c3)CC2)c2ccccc2n1CCN1CCCCC1 [Compound 331] | 92% | 100% | – | – |
| O=c1n(C/C=C/CN2CCN(c3cccc(C(F)(F)F)c3)CC2)c2ccccc2n1CCN1CCCCC1 [Compound 335] | – | – | 3.5 nM | – |
| CS(=O)(=O)NCCn1c(=O)n(C/C=C\CN2CCN(c3cccc(C(F)(F)F)c3)CC2)c2ccccc21 [Compound 503] | – | – | 2.8 nM | – |
| CC(=O)NCCn1c(=O)n(C/C=C\CN2CCN(c3cccc(C)c3C)CC2)c2ccccc21 [Compound 468] | – | – | 3.1 nM | – |
| O=c1n(CCO)c2ccccc2n1CCN1CC=C(c2ccccc2)CC1 [Compound 188] | 78% | 78% | – | – |
| COCCn1c(=O)n(CCCCN2CC=C(c3ccccc3)CC2)c2ccccc21 [Compound 10] | 47% | 60% | – | – |
| COc1ccccc1N1CCN(CCCCn2c(=O)n(CCN3CCCCC3)c3ccccc32)CC1 [Compound 38] | 78% | 92% | – | – |
| O=c1n(CCN2CCCCC2)c2ccccc2n1CCN1CCN(c2cccc(Cl)c2)CC1 [Compound 145] | 42% | 85% | – | – |
| O=c1n(CCO)c2ccccc2n1CCN1CCN(c2ccccn2)CC1 [Compound 182] | 45% | 62% | – | – |
| O=c1n(C/C=C\CN2CCN(c3cccc(Cl)c3)CC2)c2ccccc2n1CCO [Compound 365] | – | – | 15 nM | inhibition at 0.1 µM (D4 human receptors): 63% |
| O=c1n(C/C=C/CN2CC=C(c3ccccc3)CC2)c2ccccc2n1CCN1CCCCC1 [Compound 336] | 81% | 90% | – | – |
| O=c1n(CCCCN2CCN(c3cccc(Cl)c3)CC2)c2ccccc2n1CCN1CCCCC1 [Compound 24] | 67% | 90% | – | – |
| O=c1n(C/C=C\CN2CCc3c([nH]c4ccccc34)C2)c2ccccc2n1CCN1CCCCC1 [Compound 316] | 94% | 72% | – | – |
| O=c1n(C/C=C\CN2CCN(c3ccccc3)CC2)c2ccccc2n1CCO [Compound 361] | 46% | 86% | – | – |

| Compound | D4 Receptor Binding Assay % inhibition (10^−7 M) (D4 human receptors) | 5-HT1A Receptor Binding Assay % inhibition (10^−7 M) (5-HT1A; [1]) | IC50 (5-HT1A; [2]) | further results |
| --- | --- | --- | --- | --- |
| O=c1n(CCCCN2CCN(c3ccc(Cl)c(Cl)c3)CC2)c2ccccc2n1CCN1CCCCC1 [Compound 30] | 90% | 44% | – | – |
| O=c1n(C/C=C/CN2CCc3c([nH]c4ccccc34)C2)c2ccccc2n1CCN1CCCCC1 [Compound 333] | – | – | 16 nM | – |
| O=c1n(C/C=C\CN2CC=C(c3ccccc3)CC2)c2ccccc2n1CCO [Compound 370] | – | – | – | IC50 (5-HT1A): 4.4 nM |
| CC(=O)NCCn1c(=O)n(C/C=C\CN2CCN(c3cccc(C(F)(F)F)c3)CC2)c2ccccc21 [Compound 459] | – | – | 8.8 nM | – |
| Cc1cccc(N2CCN(C/C=C/Cn3c(=O)n(CCNS(C)(=O)=O)c4ccccc43)CC2)c1 [Compound 536] | – | – | 9.5 nM | – |
| O=c1n(C/C=C/CN2CCN(c3ccccn3)CC2)c2ccccc2n1CCN1CCOCC1 [Compound 347] | – | – | 13 nM | – |
| CS(=O)(=O)NCCn1c(=O)n(C/C=C/CN2CCN(c3ccccn3)CC2)c2ccccc21 [Compound 520] | – | – | 8.1 nM | – |
| O=c1n(C/C=C/CN2CCN(c3cccc(C(F)(F)F)c3)CC2)c2ccccc2n1CCN1CCOCC1 [Compound 352] | – | – | 4.1 nM | – |
| CS(=O)(=O)NCCn1c(=O)n(C/C=C\CN2CC=C(c3ccccc3)CC2)c2ccccc21 [Compound 504] | – | – | – | IC50 (5-HT1A): 3.6 nM |
| CC(=O)NCCn1c(=O)n(C/C=C\CN2CCN(c3ccccc3Cl)CC2)c2ccccc21 [Compound 472] | – | – | 3.1 nM | – |
| CCNC(=O)OCCn1c(=O)n(C/C=C/CN2CCN(c3cccc(Cl)c3)CC2)c2ccccc21 [Compound 416] | – | – | 7.9 nM | – |
| O=c1n(C/C=C/CN2CCN(c3ccccn3)CC2)c2ccccc2n1CCN1CCCCC1 [Compound 330] | – | – | 7.9 nM | – |
| CCNC(=O)OCCn1c(=O)n(C/C=C/CN2CCN(c3ccccn3)CC2)c2ccccc21 [Compound 415] | – | – | 14 nM | – |
| CC(=O)NCCn1c(=O)n(CCN2CCN(c3cccc(C)c3C)CC2)c2ccccc21 [Compound 446] | – | – | 7.3 nM | – |
| O=c1n(C/C=C/CN2CCN(c3ccccn3)CC2)c2ccccc2n1CCO [Compound 381] | – | – | 44 nM | – |
| COCCn1c(=O)n(C/C=C/CN2CCN(c3ccccn3)CC2)c2ccccc21 [Compound 296] | – | – | 8.2 nM | – |
| O=c1n(C/C=C\CN2CCN(c3cccc(C(F)(F)F)c3)CC2)c2ccccc2n1CCN1CCCCC1 [Compound 318] | – | – | 3.1 nM | – |
| Cc1cccc(N2CCN(C/C=C\Cn3c(=O)n(CCNS(C)(=O)=O)c4ccccc43)CC2)c1C [Compound 512] | – | – | 0.59 nM | – |
| O=c1n(C/C=C\CN2CCN(c3ccccc3)CC2)c2ccccc2n1CCN1CCCCC1 [Compound 310] | – | – | 15 nM | – |
